What all share (settings): stereoisomer not certain
A short description of data set [1]: RP, Merck Supelco Ascentis Express C18, 100 × 2.1 mm, 2 µm, 40 °C, 0.35 mL/min, estimated dead time 0.63 min; A: water + 0.1% formic acid, pH 3; B: acetonitrile + 0.1% formic acid, pH 3; gradient (min/%B) 0/5 2/5 17/99.9 20/99.9.
Data set [2] is described as follows: RP, Merck Supelco Ascentis Express C18, 100 × 2.1 mm, 2 µm, 40 °C, 0.4 mL/min, estimated dead time 0.55 min; A: water + 0.1% formic acid, pH 3; B: acetonitrile + 0.1% formic acid, pH 3; gradient (min/%B) 0/5 2/5 17/99.9 20/99.9.
The nature of data set [3]: RP, Merck Supelco Ascentis Express C18, 100 × 2.1 mm, 2 µm, 40 °C, 0.2 mL/min, estimated dead time 1.1 min; A: water + 0.1% formic acid, pH 3; B: acetonitrile + 0.1% formic acid, pH 3; gradient (min/%B) 0/5 2/5 17/99.9 20/99.9.
Data set [4] can be described thus: RP, Merck Supelco Ascentis Express C18, 100 × 2.1 mm, 2 µm, 40 °C, 0.4 mL/min, estimated dead time 0.55 min; A: water + 0.1% formic acid, pH 3; B: acetonitrile + 0.1% formic acid, pH 3; gradient (min/%B) 0/5 2/5 17/99.9 20/99.9. The source holds these as a separate data set.
Data set [5] in a line: RP, Merck Supelco Ascentis Express C18, 100 × 2.1 mm, 2 µm, 40 °C, 0.25 mL/min, estimated dead time 0.88 min; A: water + 0.1% formic acid, pH 3; B: acetonitrile + 0.1% formic acid, pH 3; gradient (min/%B) 0/5 2/5 17/99.9 20/99.9.
Data set [6] can be described thus: RP, Merck Supelco Ascentis Express C18, 100 × 2.1 mm, 2 µm, 40 °C, 0.2 mL/min, estimated dead time 1.1 min; A: water + 0.1% formic acid, pH 3; B: acetonitrile + 0.1% formic acid, pH 3; gradient (min/%B) 0/5 2/5 17/99.9 20/99.9. The source holds these as a separate data set.
Data set [7] in a line: RP, Merck Supelco Ascentis Express C18, 100 × 2.1 mm, 2 µm, 39 °C, 0.3 mL/min, estimated dead time 0.73 min; A: water + 0.1% formic acid, pH 3; B: acetonitrile + 0.1% formic acid, pH 3; gradient (min/%B) 0/5 2/5 17/99.9 20/99.9.

As for `O=C(O)c1ccccc1[O-]` [SALICYLATE], the LC retention time is 3.9 min in data set [1]; 3.62 min in data set [2]; 5.31 min in data set [3]; 3.59 min in data set [4]; 4.72 min in data set [5]; 5.3 min in data set [6]. Also, in data set [7], the LC retention time was 4.28 min.

Turning to `O=C(O)CCCCCCCCC(=O)O` [SEBACATE], the LC retention time in data set [1] is 6.59 min; in data set [2] it was 6.39 min; in data set [3], 7.79 min; in data set [4] it was 6.34 min; in data set [5], 7.27 min; in data set [6], 7.81 min. Also, the LC retention time in data set [7] was 6.92 min.

With `O=C([O-])CCCCCCC(=O)[O-]` [SUBERATE], the LC retention time in data set [1] is 4.87 min; in data set [2], 4.62 min; in data set [3], 6.08 min; in data set [4] it was 4.59 min; in data set [5] it was 5.55 min; in data set [6] it was 6.08 min. Also, in data set [7], the LC retention time is 5.22 min.

As for `Cn1c(=O)c2[nH]cnc2n(C)c1=O` [THEOPHYLLINE], the LC retention time is 2.47 min in data set [1]; 2.16 min in data set [2]; 3.96 min in data set [3]; 2.15 min in data set [4]; 3.32 min in data set [5]; 3.98 min in data set [6]. The LC retention time in data set [7] was 2.81 min.

Consider `CSc1ncnc2nc[nH]c12` [THIOPURINE S-METHYLETHER], for which the LC retention time in data set [1] is 3.61 min; in data set [2], 3.37 min; in data set [3] it was 4.85 min; in data set [4], 3.33 min; in data set [5], 4.33 min; in data set [6], 4.85 min. Further, in data set [7], the LC retention time is 3.94 min.

As for `Cc1cn(C2CC(O)C(CO)O2)c(=O)[nH]c1=O` (configuration not stated) [THYMIDINE], the LC retention time is 1.19 min in data set [1]; 1.05 min in data set [2]; 2.09 min in data set [3]; 1.04 min in data set [4]; 1.64 min in data set [5]; 2.06 min in data set [6]. Moreover, the LC retention time in data set [7] is 1.36 min.

Take `Cc1c[nH]c(=O)[nH]c1=O` [THYMINE]: the LC retention time in data set [1] was 0.903 min; in data set [2], 0.783 min; in data set [3], 1.6 min; in data set [4], 0.8 min; in data set [5] it was 1.27 min; in data set [6], 1.59 min. Moreover, in data set [7], the LC retention time is 1.05 min.

As for `NC(Cc1cc(I)c(Oc2cc(I)c(O)c(I)c2)c(I)c1)C(=O)O` (configuration not stated) [THYROXINE], the LC retention time in data set [1] is 7.87 min; in data set [2], 7.69 min; in data set [3], 8.87 min; in data set [4], 7.65 min; in data set [5], 8.44 min; in data set [6], 8.88 min. Also, the LC retention time in data set [7] is 8.11 min.

Turning to `O=C(O)/C=C/c1ccccc1` [TRANS-CINNAMATE], the LC retention time in data set [1] is 6.86 min; in data set [2], 6.59 min; in data set [3] it was 8.28 min; in data set [4], 6.54 min; in data set [5], 7.67 min; in data set [6], 8.31 min. Also, in data set [7], the LC retention time was 7.27 min.

For `O=c1[nH]c(=O)c2ncn(C3OC(CO)C(O)C3O)c2[nH]1` (configuration not stated) [XANTHOSINE], the LC retention time in data set [1] was 0.923 min; in data set [2], 0.81 min; in data set [3], 1.65 min; in data set [4], 0.81 min; in data set [5] it was 1.29 min; in data set [6], 1.62 min. For the same molecule, the LC retention time in data set [7] was 1.05 min.

On to `O=C(O)c1cc(=O)c2cccc(O)c2[nH]1` [XANTHURENATE], for which the LC retention time in data set [1] was 2.57 min; in data set [2], 2.28 min; in data set [3], 4.15 min; in data set [4], 2.29 min; in data set [5], 3.61 min; in data set [6] it was 4.17 min. In addition, the LC retention time in data set [7] was 3.33 min.
